{
  "source": "paper PMC11594534",
  "about": "“Antimicrobial Peptide Pro10-1D Exhibits Anti-Allergic Activity: A Promising Therapeutic Candidate” (International Journal of Molecular Sciences, 2024)",
  "key": {"E. coli-induced sepsis": {"system": "E. coli-induced sepsis", "conditions": "cited from earlier work", "source_text": "(§1) AMPs are recognized for their antibacterial activities as well as their immunomodulatory activities. The mechanism for their immunomodulatory activity includes the regulation of inflammatory or anti-inflammatory cytokines and the induction of chemoattractants. […] LL-37, produced by neutrophils, neutralize ..."}, "[1]": {"system": "TLR4-NFκB signaling pathway, LPS-TLR4/MD-2", "conditions": "competitive interference with the LPS-TLR4/MD-2 interaction; cited from earlier work", "source_text": "as §1"}, "RBL-2H3 cells": {"system": "RBL-2H3 cells", "test": "Cell viability (CCK-8), RBL-2H3", "type": "cell-based, rat", "conditions": "RBL-2H3, 4 h, CCK-8, absorbance 450 nm, up to highest experimental concentration", "procedure": "(§2) Figure 1 Pro10-1D inhibits IgE–Ag-induced degranulation in MCs. (A) RBL-2H3 cells and BMMCs were first sensitized with DNP-specific IgE and then treated with Pro10-1D or PP2 for 30 min, followed by the stimulation with DNP-HSA for 15 min. (B) IgE-sensitized RBL-2H3 cells were incubated with or without Pro10-1D for 30 min and then washed three times, followed by the stimulation with the antigen for 15 min. (C) The effects of Pro10-1D on cell viability were evaluated by incubating both RBL-2H3 cells and BMMCs with Pro10-1D for 4 h and measuring the absorbance at 450 nm using the CCK-8 kit. (A,B) The extent of degranulation from the MCs was determined by measuring the ratio of β-hexosaminidase activity released outside the cells to the total β-hexosaminidase activity. The data are presented as the mean ± SEM from three independent experiments, each performed in triplicate. Statistical significance is indicated by an asterisk; * p < 0.05, ** p < 0.01. PP2 is a general Src family kinase inhibitor.\n(§3) RBL-2H3 cells (2.0 × 10^4 cells/well) were seeded in 96-well plates and incubated for 12 h, after which they were treated with Pro10-1D for 4 h. […] Cell viability was assessed using the Cell Counting Kit-8 (CCK-8) (Dojindo Laboratories, Kumamoto, Japan), following the manufacturer’s protocol. Absorbance was measured at 450 nm to determine cell viability."}, "[2]": {"system": "bone marrow-derived mast cells (BMMC cells)", "test": "Antigen-induced MC degranulation, β-hexosaminidase assay, BMMCs", "type": "cell-based, mouse", "conditions": "BMMCs (3.0 × 10^5 cells/well), DNP-specific IgE 100 ng/mL 4 h, Pro10-1D 30 min, then DNP-HSA 50 ng/mL 15 min, 37 °C, Tyrode buffer pH 7.4, absorbance 405 nm, three independent experiments in triplicate, read-out: IC50, inhibition of antigen-induced degranulation", "procedure": "as §2, with “Statistical significance is indicated by an asterisk; * p < 0.05, ** p < 0.01. PP2 is a general Src family kinase inhibitor.” left out\n(§4) RBL-2H3 cells were obtained from the American Type Culture Collection (Manassas, VA, USA) and cultured in a complete minimal essential medium (MEM) supplemented with L-glutamine […], streptomycin (100 μg/mL), and 15% fetal bovine serum at 37 °C in a CO2-enriched environment. […] After 4 to 5 weeks of culture, the purity of BMMCs was assessed using flow cytometric analysis, focusing on FcεRIα and c-Kit expression as markers of mast cell maturation. […]"}, "Lyn": {"target": "T1, Lyn (Mus musculus, UniProt P25911)", "T1 construct": "purchased Eurofins (KinaseProfiler service, Celle-Lévescault, France)", "T1 sequence (P25911 whole entry)": "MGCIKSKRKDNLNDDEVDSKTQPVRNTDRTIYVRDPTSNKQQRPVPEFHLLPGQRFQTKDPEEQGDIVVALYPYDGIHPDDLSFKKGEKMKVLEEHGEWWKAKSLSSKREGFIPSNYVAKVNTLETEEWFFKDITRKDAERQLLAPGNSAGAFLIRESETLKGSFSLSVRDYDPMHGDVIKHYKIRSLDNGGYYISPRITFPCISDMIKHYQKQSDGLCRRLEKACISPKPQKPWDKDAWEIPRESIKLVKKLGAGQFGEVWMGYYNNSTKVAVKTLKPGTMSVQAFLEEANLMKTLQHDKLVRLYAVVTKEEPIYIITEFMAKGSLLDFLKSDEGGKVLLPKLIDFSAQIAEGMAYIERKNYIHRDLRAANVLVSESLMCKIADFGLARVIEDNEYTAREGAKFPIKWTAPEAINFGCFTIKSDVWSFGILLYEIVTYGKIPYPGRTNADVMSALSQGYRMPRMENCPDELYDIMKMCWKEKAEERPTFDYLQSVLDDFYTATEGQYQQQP", "test": "KinaseProfiler radiometric kinase assay, Lyn", "type": "biochemical", "conditions": "Km concentration for ATP, [γ-33P]-ATP, Poly (Glu, Tyr) 4:1, 0.1 mg/mL, Tris pH 7.5, 40 min, room temperature, two independent experiments", "procedure": "(§5) Figure 5 Pro10-1D suppresses the activity of Lyn and Fyn kinases in vitro. (A) BMMCs (3.0 × 10^5 cells/well) were pre-incubated with Pro10-1D or PP2 for 30 min and then stimulated with 1 μM ionomycin or 300 nM thapsigargin for 15 min. (B,C) KinaseProfiler radiometric protein kinase assays were performed with Lyn and Fyn kinase. The protocols used for the kinase assay are detailed in the Section 4 “Materials and Methods”. (A–C) The data are presented as the mean ± SEM from two independent experiments. Statistical significance is indicated by an asterisk; ** p < 0.01.\n(§6) A radiometric Lyn, Fyn kinase assay was conducted at Eurofins (Celle-Lévescault, France) using KinaseProfiler^TM. The assays were carried out at the Km concentration for ATP in dose response for each kinase. Briefly, the Lyn (mouse) assay was incubated using a mixture of 50 mM Tris pH 7.5, 0.1 mM EGTA, 0.1 mM Na3VO4, 0.1% β-Mercaptoethanol, 0.1 mg/mL Poly (Glu, Tyr) 4:1, 10 mM Magnesium acetate, and [γ^33P]-ATP. The Fyn (human) assay was incubated with a mixture of 50 mM Tris pH 7.5, 0.1 mM EGTA, 0.1 mM Na3VO4, 250 µM KVEKIGEGTYGVVYK (Cdc2 peptide), 10 mM Magnesium acetate, and [γ^33P]-ATP. The activity of Lyn and Fyn was initiated by the addition of the Mg/ATP mix, and the reactions were incubated for 40 min at room temperature. The reaction was halted by adding 0.5% phosphoric acid. […]"}, "BMMCs [3]": {"system": "BMMCs", "test": "Cell viability (CCK-8), BMMCs", "type": "cell-based, mouse", "conditions": "4 h, CCK-8, absorbance 450 nm, up to highest experimental concentration", "procedure": "as §2, §3"}, "[4]": {"system": "rat basophilic leukemia (RBL)-2H3 cells", "test": "Antigen-induced MC degranulation, β-hexosaminidase assay, RBL-2H3", "type": "cell-based", "conditions": "RBL-2H3 (2.0 × 10^5 cells/well), DNP-specific IgE 20 ng/mL overnight, Pro10-1D 30 min, then DNP-HSA 25 ng/mL 15 min, 37 °C, Siraganian buffer pH 7.2, absorbance 405 nm, three independent experiments in triplicate, read-out: IC50, inhibition of antigen-induced degranulation", "procedure": "as §2, with “Statistical significance is indicated by an asterisk; * p < 0.05, ** p < 0.01. PP2 is a general Src family kinase inhibitor.” left out\nas §4"}, "[5]": {"system": "mouse macrophage RAW264.7 cells", "conditions": "cited from earlier work", "source_text": "In this study, we utilized Pro10-1D, a 10-meric peptide developed previously by adding a D-arginine residue at the N terminal of Pro9-3D, an enantiomeric form of Pro9-3 [17]."}, "Fyn": {"target": "T2, Fyn (Homo sapiens, UniProt P06241)", "T2 construct": "purchased Eurofins (KinaseProfiler service, Celle-Lévescault, France)", "T2 sequence (P06241 whole entry)": "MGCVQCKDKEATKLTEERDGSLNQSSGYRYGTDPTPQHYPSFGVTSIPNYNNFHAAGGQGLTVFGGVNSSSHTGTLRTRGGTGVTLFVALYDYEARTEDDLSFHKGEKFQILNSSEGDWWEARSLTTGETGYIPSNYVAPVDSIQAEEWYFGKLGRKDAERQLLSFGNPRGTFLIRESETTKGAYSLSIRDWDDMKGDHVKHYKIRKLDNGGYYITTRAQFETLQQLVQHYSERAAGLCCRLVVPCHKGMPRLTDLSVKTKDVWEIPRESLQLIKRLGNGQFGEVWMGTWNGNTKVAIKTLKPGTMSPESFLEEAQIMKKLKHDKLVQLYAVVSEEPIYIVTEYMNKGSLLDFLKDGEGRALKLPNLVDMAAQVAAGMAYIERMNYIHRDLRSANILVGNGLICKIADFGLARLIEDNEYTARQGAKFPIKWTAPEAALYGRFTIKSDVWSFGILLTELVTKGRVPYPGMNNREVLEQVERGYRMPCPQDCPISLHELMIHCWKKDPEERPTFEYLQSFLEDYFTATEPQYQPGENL", "test": "KinaseProfiler radiometric kinase assay, Fyn", "type": "biochemical", "conditions": "Km concentration for ATP, [γ-33P]-ATP, 250 µM Cdc2 peptide, Tris pH 7.5, 40 min, room temperature, two independent experiments", "procedure": "as §5, §6"}, "[6]": {"system": "inflammatory cell influx into bronchoalveolar lavage fluid", "conditions": "allergic asthma, intranasal application; cited from earlier work", "source_text": "AMPs are small, naturally occurring antimicrobial peptides. In addition to their antimicrobial function, AMPs also play a role in regulating the host’s innate immune system. AMPs typically exert effects that inhibit the growth or induce the death of bacteria, fungi, and parasites. Unlike conventional antibiotics, most AMPs employ a distinct mode of action for their antibacterial activity, targeting the pathogen’s membrane. These unique mechanisms make AMPs promising candidates for the development of next-generation antibiotics. By August 2020, the antimicrobial peptide database c ..."}, "[7]": {"system": "NF-κB and p38 MAPK in MCs", "conditions": "IgE-independent stimulation; cited from earlier work", "source_text": "MCs play a pivotal role in the late-phase reaction following early-phase activation triggered by Ag stimulation. During the late-phase response, MCs produce and secrete a range of cytokines and chemokines, which further intensify the inflammatory cascade initiated in the early response, leading to the recruitment and activation of various immune cells. The late-phase response of MC activation is instrumental in sustaining and exacerbating allergic symptoms, such as bronchoconstriction and edema. Suppressing MC-mediated late-phase responses, therefore, can help prevent the ..."}, "[8]": {"system": "T cells, B cells, and pDC cells", "conditions": "cited from earlier work", "source_text": "as §1"}, "TLR ligands": {"system": "TLR ligands", "conditions": "cited from earlier work", "source_text": "as §1"}, "BMMCs [9]": {"system": "BMMCs", "test": "Thapsigargin-induced degranulation of BMMCs", "type": "cell-based, mouse", "conditions": "BMMCs without IgE sensitization, 30 min pre-incubation, 300 nM thapsigargin 15 min; two independent experiments", "procedure": "as §5\n(§7) RBL-2H3 cells (2.0 × 10^5 cells/well) were sensitized overnight with 20 ng/mL DNP-specific IgE in the culture medium. BMMCs (3.0 × 10^5 cells/well) were sensitized with 100 ng/mL DNP-specific IgE for 4 h in the culture medium. […] The reaction was stopped by the addition of 250 μL of a 0.1 M carbonate buffer, and absorbance was measured at 405 nm. The degranulation values were calculated as the ratio of β-hexosaminidase activity secreted into the supernatant to the total β-hexosaminidase activity from both the supernatant and cell extract."}, "BMMCs [10]": {"system": "BMMCs", "test": "Ionomycin-induced degranulation of BMMCs", "type": "cell-based, mouse", "conditions": "BMMCs without IgE sensitization, 30 min pre-incubation, 1 μM ionomycin 15 min; two independent experiments", "procedure": "as §5, §7"}},
  "note": "Square brackets hold non-standard residues; d marks the D form. Peptide text beside a SMILES is read from it.",
  "data": [
    {"molecule": "papiliocin", "values": [
      {"measurement": "effect on E. coli-induced sepsis", "setting": "E. coli-induced sepsis", "result": "alleviates the impact of E. coli-induced sepsis"},
      {"measurement": "inhibition of TLR4-NFκB signaling pathway", "setting": "[1]", "result": "inhibiting the TLR4-NFκB signaling pathway"}
    ]},
    {"molecule": "CC[C@@H](C)[C@@H](NC(=O)[C@@H](C)NC(=O)[C@@H](CC(C)C)NC(=O)[C@@H](Cc1c[nH]c2ccccc12)NC(=O)[C@@H](CC(C)C)NC(=O)[C@@H](CCCNC(=N)N)NC(=O)[C@H](N)CCCNC(=N)N)C(=O)N[C@H](Cc1c[nH]c2ccccc12)C(=O)N[C@H](CCCNC(=N)N)C(=O)N[C@H](CCCNC(=N)N)C(N)=O", "note": "[Pro10-1D] (H-[dR][dR][dL][dW][dL][dA][dI][dW][dR][dR]-NH2)", "values": [
      {"measurement": "cellular toxicity / cell viability", "setting": "RBL-2H3 cells", "result": "did not exhibit any signs of cellular toxicity, even at the highest experimental concentration"},
      {"measurement": "IC50", "setting": "[2]", "result": "~2.7", "unit": "µM"},
      {"measurement": "IC50", "setting": "Lyn", "result": "~1.5", "unit": "µM"},
      {"measurement": "cellular toxicity / cell viability", "setting": "BMMCs [3]", "result": "did not exhibit any signs of cellular toxicity, even at the highest experimental concentration"},
      {"measurement": "IC50", "setting": "[4]", "result": "~11.6", "unit": "µM"},
      {"measurement": "toxicity to RAW264.7 cells", "setting": "[5]", "result": "non-toxic"},
      {"measurement": "IC50", "setting": "Fyn", "result": "~22.6", "unit": "µM"}
    ]},
    {"molecule": "hBD2: human β-defensin-2 (GIGDPVTCLKSGAICHPVFCPRRYKQIGTCGLPGTKCCKKP; UniProt O15263 24-64, looked up)", "values": [
      {"measurement": "inflammatory cell influx into bronchoalveolar lavage fluid", "setting": "[6]", "result": "reduce inflammatory cell influx into bronchoalveolar lavage fluid"}
    ]},
    {"molecule": "O=C(CO)NCCCOc1cccc(CN2CCCCC2)c1", "note": "[roxatidine]", "values": [
      {"measurement": "release of pro-inflammatory cytokines; phosphorylation of NF-κB and p38 MAPK", "setting": "[7]", "result": "attenuate the release of pro-inflammatory cytokines by inhibiting the phosphorylation of NF-κB and p38 MAPK"}
    ]},
    {"molecule": "LL-37", "values": [
      {"measurement": "IL-10 expression", "setting": "[8]", "result": "induces IL-10 expression"},
      {"measurement": "effect on pro-inflammatory activity of TLR ligands", "setting": "TLR ligands", "result": "neutralizes the pro-inflammatory activity of TLR ligands"}
    ]},
    {"molecule": "CC(C)(C)n1nc(-c2ccc(Cl)cc2)c2c(N)ncnc21", "note": "[PP2, 4-amino-5-(4-chlorophenyl)-7-(dimethylethyl)pyrazolo[3,4-d]pyrimidine]", "values": [
      {"measurement": "inhibition of thapsigargin-induced degranulation", "setting": "BMMCs [9]", "result": "much weaker inhibitory effect on thapsigargin or ionomycin-induced degranulation compared to its inhibitory effect on antigen-induced degranulation"},
      {"measurement": "inhibition of ionomycin-induced degranulation", "setting": "BMMCs [10]", "result": "much weaker inhibitory effect on thapsigargin or ionomycin-induced degranulation compared to its inhibitory effect on antigen-induced degranulation"}
    ]}
  ]
}
